US20260001841A1, “PREPARATION OF STABLE PSILOCIN SALTS, ESTERS AND CONJUGATES AND USES THEREOF” (LOBE SCIENCES LTD., priority 2022, published 2026)
Several values for one entry are separate records, joined by “and”; a condition that tells them apart may be missing. Identical values can stand only once. Entries after “also recorded” stand apart in the source; their conditions may differ.

Columns and labels:
[1] = psilocin from psilocybin dosing; cited from earlier work
[2] = doses as low as 5 mg psilocybin (about 2 mg psilocin); cited from earlier work
healthy subjects = experiment: Phase one single-dose study of psilocin mucic acid conjugate capsules: psychiatrist mood assessment and mini mental state examination (MMSE); conditions: single oral capsule, 4.05 mg conjugate equivalent to 2 mg psilocin
[3] = Stability studies on psilocin mucate capsule (appearance, HPLC assay and impurities, TM-022-0392); format: physicochemical; conditions: for Appearance, Packaging: Labeled, amber glass bottle with white closure containing 15 partially filled white opaque capsules / Appearance, Product: White to light brown powder partially filling white opaque capsules / Total Impurities TM-22-0392 / Impurities TM-22-0392, individual impurities / Assay TM-22-0392 (% Label Claim): capsule; for Assay TM-22-0392 (% Label Claim): specification 90.0-110.0%
Procedure: Additional stability studies were performed on psilocin mucate (also known as psilocin mucic acid salt or conjugate or psilocin galactaric acid salt or conjugate) capsule.
Appearance was evaluated by viewing of the sample on a watchglass over a black and white background.
Assay conditions for Test/Method TM-022-0392 assessing stability and impurities were as follows: • Mobile phase: MPA: 945 mL water, 5 mL H3PO4, PH to 5.7 with NaOH; MPB: Acetonitrile • Diluent: 80:20 Water:MeOH • Standard: 0.4 mg/mL Psilocin Mucic RS in Diluent • Sample: 0.4 mg/mL Psilocin Mucic API in Diluent HPLC Conditions are depicted in Table 3.
Calculations were against a bracketing external standard.
Identity of psilocin mucate was verified by ultraviolet (UV) assessment, wherein the UV spectrum of the main peak in the standard matched the UV spectrum of the main peak in the sample and by retention time wherein the retention time ratio was 0.98-1.02.

Molecule	Estimated dose-normalized bioavailability [1]	Adverse psychological effects reported [2]	FEELING STATUS (mood assessed by psychiatrist) (healthy subjects; one entry per subject (01-10))	MMSE score (healthy subjects; one value per subject (01-10), scores expected below 25 with a hallucinogenic substance)	Time demonstrated to be stable [3]	Appearance, Packaging: Labeled, amber glass bottle with white closure containing 15 partially filled white opaque capsules ([3]; 7 Months)	Appearance, Product: White to light brown powder partially filling white opaque capsules ([3]; 7 Months)	Total Impurities TM-22-0392 ([3]; 7 Months)	Impurities TM-22-0392, individual impurities ([3]; 7 Months, all impurities)	Assay TM-22-0392 (% Label Claim) ([3]; 7 Months)	Appearance, Packaging: Labeled, amber glass bottle with white closure containing 15 partially filled white opaque capsules ([3]; Initial)	Appearance, Product: White to light brown powder partially filling white opaque capsules ([3]; Initial)	Total Impurities TM-22-0392 ([3]; Initial)	Impurities TM-22-0392, individual impurities ([3]; Initial, impurity at RRT1.12)	Assay TM-22-0392 (% Label Claim) ([3]; Initial)
CN(C)CCc1c[nH]c2cccc(OP(=O)(O)O)c12 [psilocybin, Psilocybin]	52.7%	hallucinogenic effects coupled with increased anxiety													
psilocin mucate			Feel calm, less thoughts, happier mood; also recorded: Euphoric, better mood, it helps with life stress; also recorded: Euphories, better mood, sleepy, feel time is slower; also recorded: Sleepy, better thoughts, less worried in general; also recorded: Did not feel change in mood but feeling cold extremities; also recorded: More relaxed, want to drink sweet tea, better mood; also recorded: Better mood, feels hyper sexual; also recorded: Felt high mood, now they feel in good way,, they would love to; also recorded: Less anxious, better mood, increase their appetite; also recorded: Feel little beet happier, better energy	28 (3×) and 27 (2×) and 30 (3×) and 29 (2×)	at least 7 months	Conforms	Conforms	<0.05%	All <0.05%	101.7%	Conforms	Conforms	0.08%	RRT1.12/0.08%	100.8%
